Measured values as given in US9890176B2, “Mannose derivatives for treating bacterial infections” (Vertex Pharmaceuticals Incorporated, priority 2013, dated 2018).

Experiments:
[1] = Mouse Feces Stability Assay; format: in vitro ADME; conditions: 100 uM in mouse feces supernatant, pH 6.5, 37° C.
Method: The mouse feces stability assay can be used to measure the stability of FimH antagonists in an environment that mimics the gut. Fresh mouse feces samples from a number of animals (at least 4) are homogenized with 10 volumes (w/v) of 100 mM potassium phosphate buffer (pH 6.5) using a Stomacher device. The feces mixture is then centrifuged 5 min at 2000 g and the supernatant is collected for incubation. Compounds to be tested are spiked at 100 uM in the feces supernatant and incubated at 37° C. up to 6 hours. The enzymatic reaction is stopped by adding 9 volumes of acetonitrile containing 0.1% formic acid and an internal standard. The mixture is centrifuged and the supernatants are analyzed by HPLC-MS/MS to assess percentage of parent remaining relative to a control sample.

[2] = Human Feces Stability Assay; format: in vitro ADME; conditions: 100 uM in human feces supernatant (3 donors), pH 6.5, 37° C.
Method: The human feces stability assay ca be used to measure the stability of FimH antagonists in an environment that mimics the gut. Fresh human feces samples from 3 donors are homogenized with 10 volumes (w/v) of 100 mM potassium phosphate buffer (pH 6.5) using a Stomacher device. The feces mixture is then centrifuged 5 min at 2000 g and supernatant is collected for incubations. Compounds to be tested are spiked at 100 uM in feces supernatant and incubated at 37° C. up to 24 hours. The enzymatic reaction is stopped by adding 9 volumes of acetonitrile containing 0.1% formic acid and internal standard. The mixture is centrifuged and the supernatants are analysed by HPLC-MS/MS to assess percentage of parent remaining relative to a control sample.

[3] = Mouse Excretion Study Following FimH Antagonist Oral Dosing; format: in vivo; conditions: 10 mg/kg orally, collection up to 72 h
Method: Mice are dosed 10 mg/kg orally (10 mL/kg; 0.5% methocel) with FimH antagonists and urine and feces are collected on ice up to 72 h in excretion cages. Post-collection, feces samples are diluted with 10 volumes of water and homogenized using a Stomacher device. Feces mixture and urine samples are then quenched with acetonitrile containing an internal standard, centrifuged, and the supernatants are then diluted with 1 volume of water prior to analysis by HPLC-MS/MS in SRM mode.

[4] = molecular target: T1, carbohydrate recognition domain of the protein FimH (M1-T179) (Escherichia coli, UniProt P08191); test: Thermal Shift Assay; format: binding, E. coli; conditions: 5.6 μM protein, 56 μM ligand; DMSO control as reference; ± standard error of the mean (number of repeats)
T1 construct: domain of the protein FimH (M1-T179) with an uncleavable C-terminus 6-His tag; made in house; host or cells: E. coli (pET21b plasmid)
Method: The carbohydrate recognition domain of the protein FimH (M1-T179) with an uncleavable C-terminus 6-His tag is cloned in a pET21b plasmid and expressed in E. coli and purified to homogeneity. The thermal stabilization of the protein upon ligand binding is measured in a 96-well format on a ViiA™ 7 (Life Technologies, Carlsbad, Calif.) RT-PCR instrument. The assay is conducted in duplicate in 20 mM Tris pH 7.4 and 150 mM NaCl at a final concentration of 5.6 μM and 56 μM for protein and ligand, respectively. An environmentally-sensitive dye (Applied Biosystems Protein Thermal Shift™ Dye (P/N 4461141)) is added to each well to a final ratio of 1:1000. Plates are spun at 1000×g for 1 minute and incubated at room temperature for 10 minutes. Thermal stability of protein with and without ligand is measured from 45° C. to 85° C. at a scan rate of 0.05° C./sec. The resulting data is analyzed using Protein Thermal Shift™ Software (version 1.1) with DMSO control used as reference.

[5] = test system: bacterial strain LF82 binding to the glycoprotein BSA-(Mannose)3; test: Bacterial Binding Assay (BBA); format: cell-based, Escherichia coli; conditions: read-out: Bacterial Binding Assay IC50
Summary of the method: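 Luciferase-tagged E. coli LF82 grown overnight at 37° C without shaking, then added at 2×10^8 bacteria/mL (10^7 per well) to wells coated with 0.5-2 μg/mL BSA-(Man)3 and blocked with 2% BSA. Compound in 0.2% BSA/D-PBS; binding 40-75 min at room temperature. Washed; bound bacteria read by luciferase luminescence; IC50.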

T1 sequence (P08191 22-179 limits assumed): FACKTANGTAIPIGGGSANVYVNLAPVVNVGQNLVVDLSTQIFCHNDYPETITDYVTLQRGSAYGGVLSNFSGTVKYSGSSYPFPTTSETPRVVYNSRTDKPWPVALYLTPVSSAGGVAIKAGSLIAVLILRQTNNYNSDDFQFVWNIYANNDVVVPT

## CNC(=O)c1cccc(-c2ccc(O[C@H]3O[C@H](CO)[C@@H](O)[C@H](O)[C@@H]3O)c(C)c2)c1 [A]
[1]
  In vitro mice feces stability - % Parent remaining at 6 h: 0%
[2]
  In vitro human feces stability - % Parent remaining at 24 h: 35%
[3]
  % Oral dose recovered intact in mice feces: 8.4%
  % Oral dose recovered intact in mice urine: 0.20%

## Cc1cc(-c2cccc([N+](=O)[O-])c2)ccc1O[C@H]1O[C@H](CO)[C@@H](O)[C@H](O)[C@@H]1F [Example 2, (2R,3S,4S,5S,6R)-5-fluoro-2-(hydroxymethyl)-6-((3-methyl-3′-nitro-[1,1′-biphenyl]-4-yl)oxy)tetrahydro-2H-pyran-3,4-diol]
[4]
  Delta Thermal melt: 6.01 (1) ° C.
[5]
  IC50: 1150 ± 350 nM

## CNC(=O)c1cccc(-c2ccc(O[C@H]3O[C@H](CO)[C@@H](O)[C@H](O)[C@@H]3F)c(C(F)(F)F)c2)c1 [Example 4, 3-[4-[(2R,3S,4S,5S,6R)-3-fluoro-4,5-dihydroxy-6-(hydroxymethyl)tetrahydropyran-2-yl]oxy-3-(trifluoromethyl)phenyl]-N-methyl-benzamide]
[1]
  In vitro mice feces stability - % Parent remaining at 6 h: 108%
[4]
  Delta Thermal melt: 5.6 (1) ° C.
[5]
  IC50: 470 ± 32 nM

## CNC(=O)c1cccc(-c2ccc(O[C@H]3O[C@H](CO)[C@@H](O)[C@H](O)[C@@H]3F)c(C)c2)c1 [Example 6, 3-[4-[(2R,3S,4S,5S,6R)-3-fluoro-4,5-dihydroxy-6-(hydroxymethyl)tetrahydropyran-2-yl]oxy-3-methyl-phenyl]-N-methyl-benzamide]
[1]
  In vitro mice feces stability - % Parent remaining at 6 h: 108%
[4]
  Delta Thermal melt: 4.905 ± 0.195 (2) ° C.
[5]
  IC50: 750 ± 141 nM

## CNC(=O)c1cccc(-c2ccc(O[C@H]3O[C@H](CO)[C@@H](O)[C@H](O)[C@@H]3F)cc2)c1 [Example 7, 3-[4-[(2R,3S,4S,5S,6R)-3-fluoro-4,5-dihydroxy-6-(hydroxymethyl)tetrahydropyran-2-yl]oxyphenyl]-N-methyl-benzamide]
[4]
  Delta Thermal melt: 3.86 ± 0.09 (2) ° C.
[5]
  IC50: 8620 ± 1300 nM

## CNC(=O)c1cccc(-c2ccc(O[C@H]3O[C@H](CO)[C@@H](O)[C@H](O)[C@@H]3F)c(OC)c2)c1 [Example 8, 3-[4-[(2R,3S,4S,5S,6R)-3-fluoro-4,5-dihydroxy-6-(hydroxymethyl)tetrahydropyran-2-yl]oxy-3-methoxy-phenyl]-N-methyl-benzamide]
[4]
  Delta Thermal melt: 4 (1) ° C.
[5]
  IC50: 5400 ± 200 nM

## COC(=O)c1cc(C(=O)OC)cc(-c2ccc(O[C@H]3O[C@H](CO)[C@@H](O)[C@H](O)[C@@H]3F)cc2)c1 [Example 9, Dimethyl 5-[4-[(2R,3S,4S,5S,6R)-3-fluoro-4,5-dihydroxy-6-(hydroxymethyl)tetrahydropyran-2-yl]oxyphenyl]benzene-1,3-dicarboxylate]
[4]
  Delta Thermal melt: 4.39 ± 0.11 (2) ° C.

## Cc1cc(=O)oc2cc(O[C@H]3O[C@H](CO)[C@@H](O)[C@H](O)[C@@H]3F)ccc12 [Example 10, 7-[(2R,3S,4S,5S,6R)-3-fluoro-4,5-dihydroxy-6-(hydroxymethyl)tetrahydropyran-2-yl]oxy-4-methyl-chromen-2-one]
[4]
  Delta Thermal melt: 3.405 ± 0.105 (2) ° C.

## CNC(=O)c1cccc(-c2ccc(O[C@H]3O[C@H](CO)[C@@H](O)[C@H](F)[C@@H]3O)cc2)c1 [Example 11, 4′-(((2R,3R,4S,5R,6R)-4-fluoro-3,5-dihydroxy-6-(hydroxymethyl)tetrahydro-2H-pyran-2-yl)oxy)-N-methyl-[1,1′-biphenyl]-3-carboxamide]
[4]
  Delta Thermal melt: 2.6 (1) ° C.
[5]
  IC50: 14000 nM

## CNC(=O)c1cccc(-c2ccc(O[C@H]3O[C@H](CF)[C@@H](O)[C@H](O)[C@@H]3O)cc2)c1 [Example 12, 4′-(((2R,3S,4S,5S,6S)-6-(fluoromethyl)-3,4,5-trihydroxytetrahydro-2H-pyran-2-yl)oxy)-N-methyl-[1,1′-biphenyl]-3-carboxamide]
[1]
  In vitro mice feces stability - % Parent remaining at 6 h: 118%
[4]
  Delta Thermal melt: 0.06 ± 0.11 (2) ° C.

## CNC(=O)c1cccc(-c2ccc(O[C@H]3O[C@H](CO)[C@@H](O)[C@H](O)[C@]3(C)O)c(C)c2)c1 [Example 13, N,3′-dimethyl-4′-(((2R,3S,4S,5S,6R)-3,4,5-trihydroxy-6-(hydroxymethyl)-3-methyltetrahydro-2H-pyran-2-yl)oxy)-[1,1′-biphenyl]-3-carboxamide]
[4]
  Delta Thermal melt: 10.71 ± 0 (2) ° C.
[5]
  IC50: 15 ± 2 nM
